Results published in US12514859B2, “Pyrazole pyrimidine derivative and uses thereof” (Yissum Research Development Company of the Hebrew …, priority 2015, dated 2026).

Legend:
[1] = test system: Wnt/β-catenin; assay: β-catenin stabilization (Wnt pathway activation) in RKO cells (Western blot); type: cell-based; parameters: concentration at which β-catenin was stabilized: unit not given here; conditions: for β-Catenin activity: 16 hours, Western blot
Method: (§1) Primary Screen in RKO cells for compounds having typical CKIα inhibitory activity (β-catenin and p53 stabilization and histone H2AX phosphorylation; see Elyada et al, Nature 2011 Feb. 17; 470(7334):409-13; Pribluda et al, Cancer Cell 2013 Aug. 12; 24(2):242-56). RKO colorectal cells were incubated with 10 μM of each of the compounds for 16 hours at 37° C. Cells were washed with PBS and cell pellets were incubated with ice cold protein lysis buffer containing protease inhibitor cocktail (1/200; Calbiochem) and phosphatase inhibitors (20 mM p-nitrophenyl phosphate (PNPP), 20 mM β-glycerophosphate and 300 nM okadaic acid). Western blot analysis was performed by means of standard techniques. Blots were incubated with antibodies detecting β-catenin (1/2,500; BD Transduction), p53 (DO-1&1801 hybridoma mix; dilution of 1:20 of supernatants from each), CKIα (C-19; 1/1,000; Santa Cruz Biotechnology) and phospho-histoneH2AX (S139; 1/1,000; Millipore). Secondary antibodies were HRP-linked goat anti-mouse, goat anti-rabbit and rabbit anti-goat antibodies (all 1/10,000; Jackson). Blots were developed using ECL (GE Healthcare).
(§2) Active compounds were further analyzed in a dose-response experiment (FIGS. 1A and 1B). Similar to the primary screen, RKO cells were incubated with descending concentrations of each of the active compounds for 16 hours at 37° C. Cell extract isolation and Western Blot analysis were similar to the primary screen.
(§3) Table 1 provides quantified information for compounds of the invention in activation of p53 and DNA damage response (DDR) and β-catenin stabilization as an indicator of Wnt pathway activation. p53 activation was determined according to the degree of protein stabilization in several Western blot assays (Western blot examples are shown in FIGS. 1A and 1B). […] In contrast, A35 started stabilizing p53 at […], with maximal stabilization at […] (FIG. 1A, upper right panel) and thus received an average value of +++ for p53 activation.

[2] = test system: p53, DNA damage response (γH2AX); assay: p53 and DNA damage response activation in RKO cells (Western blot, primary screen and dose response); type: cell-based; conditions: for DDR & p53 activity: 16 hours, Western blot, average value
Method: as §1, §2, §3

Row | Structure (SMILES) | β-Catenin activity [1] | DDR & p53 activity [2] | concentration at which β-catenin was stabilized ([1]; FIG. 1A) | p53 stabilization and γH2AX induction (in words) ([2]; FIG. 1A)
1 | CC(C)n1ncc(-c2ccnc(N[C@H]3CC[C@H](N)CC3)n2)c1CC1CCC1 [Compound A53, (1R,4R)—N^1-(4-(5-(cyclobutylmethyl)-1-isopropyl-1H-pyrazol-4-yl)pyrimidin-2-yl)cyclohexane-1,4-diamine] | + (+ indicates low, yet significant activation at a compound concentration of 6 μM) | + (+ indicates low, yet significant activation at a compound concentration of 6 μM) | – | –
2 | Cn1ncc(-c2nc(NC3CCC(NCc4cn[nH]c4)CC3)ncc2Cl)c1CC1CC1 [Compound A75, (1R,4R)—N^1-((1H-pyrazol-4-yl)methyl)-N^4-(5-chloro-4-(5-(cyclopropylmethyl)-1-methyl-1H-pyrazol-4-yl)pyrimidin-2-yl)cyclohexane-1,4-diamine] | +++ (+++ indicates maximal β-catenin or p53 stabilization at >2 μM) | +++++ (+++++ indicates maximal activation of p53 and DDR at >0.1 μM) | – | –
3 | Cn1ncc(-c2ccnc(N[C@H]3CC[C@H](N4CCOCC4)CC3)n2)c1CC1CC1 [Compound A48, 4-(5-(cyclopropylmethyl)-1-methyl-1H-pyrazol-4-yl)-N-((1r, 4r)-4-morpholinocyclohexyl)pyrimidin-2-amine] | + (+ indicates low, yet significant activation at a compound concentration of 6 μM) | + (+ indicates low, yet significant activation at a compound concentration of 6 μM) | – | –
4 | Cn1ncc(-c2nc(NC3CCC(NCc4cn[nH]c4)CC3)ncc2F)c1CC1CC1 [Compound A85, (1R,4R)—N^1-((1H-pyrazol-4-yl)methyl)-N^4-(4-(5-(cyclopropylmethyl)-1-methyl-1H-pyrazol-4-yl)-5-fluoropyrimidin-2-yl)cyclohexane-1,4-diamine] | +++ (+++ indicates maximal β-catenin or p53 stabilization at >2 μM) | +++ (+++ indicates maximal β-catenin or p53 stabilization at >2 μM) | – | –
5 | Cn1ncc(-c2ccnc(NC3CCC(N)(CO)CC3)n2)c1CC1CC1 (stereo not drawn) [Compound A19, (1-amino-4-((4-(5-(cyclopropylmethyl)-1-methyl-1H-pyrazol-4-yl)pyrimidin-2-yl)amino)cyclohexyl)methanol] | + (+ indicates low, yet significant activation at a compound concentration of 6 μM) | + (+ indicates low, yet significant activation at a compound concentration of 6 μM) | – | –
6 | Cn1ncc(-c2ccnc(NC3CCC4(CC3)COC(=O)N4)n2)c1CC1CC1 (stereo not drawn) [Compound A26, 8-((4-(5-(cyclopropylmethyl)-1-methyl-1H-pyrazol-4-yl)pyrimidin-2-yl)amino)-3-oxa-1-azaspiro[4.5]decan-2-one] | + (+ indicates low, yet significant activation at a compound concentration of 6 μM) | + (+ indicates low, yet significant activation at a compound concentration of 6 μM) | – | –
7 | Cn1ncc(-c2ccnc(NC3CCC4(CC3)NC(=O)NC4=O)n2)c1CC1CC1 (stereo not drawn) [Compound A19-4, 8-((4-(5-(cyclopropylmethyl)-1-methyl-1H-pyrazol-4-yl)pyrimidin-2-yl)amino)-1,3-diazaspiro[4.5]decane-2,4-dione] | +++ (+++ indicates maximal β-catenin or p53 stabilization at >2 μM) | – | 2 | neither stabilized p53, nor induced γH2AX
8 | Cn1ncc(-c2nc(N[C@H]3CC[C@H](Nc4ccccc4)CC3)ncc2Cl)c1CC1CC1 [Compound A68, (1R,4R)—N^1-(5-chloro-4-(5-(cyclopropylmethyl)-1-methyl-1H-pyrazol-4-yl)pyrimidin-2-yl)-N^4-phenylcyclohexane-1,4-diamine] | + (+ indicates low, yet significant activation at a compound concentration of 6 μM) | + (+ indicates low, yet significant activation at a compound concentration of 6 μM) | – | –
9 | N[C@H]1CC[C@H](Nc2nccc(-c3cnn(C4CCCOC4)c3CC3CC3)n2)CC1 (stereo partly drawn) [Compound A38, (1R, 4R)—N^1-(4-(5-(cyclopropylmethyl)-1-(tetrahydro-2H-pyran-3-yl)-1H-pyrazol-4-yl)pyrimidin-2-yl)cyclohexane-1,4-diamine] | + (+ indicates low, yet significant activation at a compound concentration of 6 μM) | + (+ indicates low, yet significant activation at a compound concentration of 6 μM) | – | –
10 | Cn1ncc(-c2nc(NC3CCC(N)CC3)ncc2F)c1CC1CC1 [Compound A86, (1R,4R)—N^1-(4-(5-(cyclopropylmethyl)-1-methyl-1H-pyrazol-4-yl)-5-fluoropyrimidin-2-yl)cyclohexane-1,4-diamine] | +++ (+++ indicates maximal β-catenin or p53 stabilization at >2 μM) | +++++ (+++++ indicates maximal activation of p53 and DDR at >0.1 μM) | – | –
